Source: US8853392B2, “Benzamide mGluR5 positive allosteric modulators and methods of making and using same” (Vanderbilt University, priority 2007, dated 2014)
Read-outs that look alike come from different tables or passages of the source.

Target: T1, rat mGluR5 (Rattus norvegicus, UniProt P31424)
T1 construct: expressed in transfected cells; host or cells: human embryonic kidney (HEK) cells
Assay: potentiation of mGluR5 response to glutamate, Ca2+ fluorescence (FDSS) in HEK cells transfected with rat mGluR5
Format: cell-based
Description: Human embryonic kidney (HEK) cells transfected with rat mGluR5 were plated in clear bottom assay plates for assay in a Functional Drug Screening System (FDSS). The cells were loaded with a Ca^2+-sensitive fluorescent dye (e.g., Fluo-4), and the plates were washed and placed in the FDSS instrument. After establishment of a fluorescence baseline for twelve seconds, the compounds of the present invention were added to the cells, and the response in cells was measured. Five minutes later, an mGluR5 agonist (e.g., glutamate, 3,5-dihydroxyphenylglycine, or quisqualate) was added to the cells, and the response of the cells was measured. Potentiation of the agonist response of mGluR5 by the compounds in the present invention was observed as an increase in response to non-maximal concentrations of agonist (here, glutamate) in the presence of compound compared to the response to agonist in the absence of compound.
The above described assay operated in two modes. In the first mode, a range of concentrations of the present compounds were added to cells, followed by a single fixed concentration of agonist. If a compound acted as a potentiator, an EC50 value for potentiation and a maximum extent of potentiation by the compound at this concentration of agonist was determined by non-linear curve fitting. In the second mode, several fixed concentrations of the present compounds were added to various wells on a plate, followed by a range of concentrations of agonist for each concentration of present compound; the EC50 values for the agonist at each concentration of compound were determined by non-linear curve fitting. A decrease in the EC50 value of the agonist with increasing concentrations of the present compounds (a leftward shift of the agonist concentration-response curve) is an indication of the degree of mGluR5 potentiation at a given concentration of the present compound. An increase in the EC50 value of the agonist with increasing concentrations of the present compounds (a rightward shift of the agonist concentration-response curve) is an indication of the degree of mGluR5 antagonism at a given concentration of the present compound. The second mode also indicates whether the present compounds also affect the maximum response to mGluR5 to agonists.
Human embryonic kidney (HEK) cells transfected with rat mGluR5 were plated in clear-bottomed, poly-D-lysine-coated assay plates in glutamate-glutamine-free medium growth and incubated overnight at 37° C. in 5% CO2. The following day, cells were loaded with 2 μM calcium indicator dye, fluo-4 AM, for 1 h at 37° C. Dye was removed and replaced with assay buffer containing 1× Hanks balanced salt solution (Invitrogen, Carlsbad, Calif.), 20 mM HEPES, and 2.5 mM probenecid, pH 7.4. Cell plates were then loaded into the Functional Drug Screening System 6000 (FDSS 6000, Hamamatsu, Japan). After establishment of a fluorescence baseline for twelve seconds, the compounds of the present invention were added to the cells, and the response in cells was measured. Five minutes later, an mGluR5 agonist (e.g., glutamate, 3,5-dihydroxyphenylglycine, or quisqualate) was added to the cells, and the response of the cells was measured during a 1 minute incubation with agonists. Typically, the effect of test compounds of the present invention was on an EC20 concentration of glutamate was measured. All test compounds were dissolved and diluted in 100% DMSO and then serially diluted into assay buffer for a 2.5× stock in 0.25% DMSO; stock compounds were then added to the assay for a final DMSO concentration of 0.1%. Calcium fluorescence measures were recorded as fold over basal fluorescence; raw data was then normalized to the maximal response to agonist. Potentiation of the agonist response of mGluR5 by the compounds in the present invention was observed as an increase in response to non-maximal concentrations of agonist (here, glutamate) in the presence of compound compared to the response to agonist in the absence of compound. […]

[1] = Table 1, EC50 for potentiating the mGluR5 receptor, unit inferred, read-out: EC50
[2] = HEK293, maximum extent of potentiation, normalized to maximal response to glutamate, SAR tables, read-out: % Glu Max
[3] = potentiation of glutamate response, HEK cells transfected with rat mGluR5, SAR tables, read-out: EC50
[4] = HEK293, read-out: % Glu Max, maximum extent of potentiation, normalized to maximal response to glutamate, SAR tables

T1 sequence (P31424 21-1203): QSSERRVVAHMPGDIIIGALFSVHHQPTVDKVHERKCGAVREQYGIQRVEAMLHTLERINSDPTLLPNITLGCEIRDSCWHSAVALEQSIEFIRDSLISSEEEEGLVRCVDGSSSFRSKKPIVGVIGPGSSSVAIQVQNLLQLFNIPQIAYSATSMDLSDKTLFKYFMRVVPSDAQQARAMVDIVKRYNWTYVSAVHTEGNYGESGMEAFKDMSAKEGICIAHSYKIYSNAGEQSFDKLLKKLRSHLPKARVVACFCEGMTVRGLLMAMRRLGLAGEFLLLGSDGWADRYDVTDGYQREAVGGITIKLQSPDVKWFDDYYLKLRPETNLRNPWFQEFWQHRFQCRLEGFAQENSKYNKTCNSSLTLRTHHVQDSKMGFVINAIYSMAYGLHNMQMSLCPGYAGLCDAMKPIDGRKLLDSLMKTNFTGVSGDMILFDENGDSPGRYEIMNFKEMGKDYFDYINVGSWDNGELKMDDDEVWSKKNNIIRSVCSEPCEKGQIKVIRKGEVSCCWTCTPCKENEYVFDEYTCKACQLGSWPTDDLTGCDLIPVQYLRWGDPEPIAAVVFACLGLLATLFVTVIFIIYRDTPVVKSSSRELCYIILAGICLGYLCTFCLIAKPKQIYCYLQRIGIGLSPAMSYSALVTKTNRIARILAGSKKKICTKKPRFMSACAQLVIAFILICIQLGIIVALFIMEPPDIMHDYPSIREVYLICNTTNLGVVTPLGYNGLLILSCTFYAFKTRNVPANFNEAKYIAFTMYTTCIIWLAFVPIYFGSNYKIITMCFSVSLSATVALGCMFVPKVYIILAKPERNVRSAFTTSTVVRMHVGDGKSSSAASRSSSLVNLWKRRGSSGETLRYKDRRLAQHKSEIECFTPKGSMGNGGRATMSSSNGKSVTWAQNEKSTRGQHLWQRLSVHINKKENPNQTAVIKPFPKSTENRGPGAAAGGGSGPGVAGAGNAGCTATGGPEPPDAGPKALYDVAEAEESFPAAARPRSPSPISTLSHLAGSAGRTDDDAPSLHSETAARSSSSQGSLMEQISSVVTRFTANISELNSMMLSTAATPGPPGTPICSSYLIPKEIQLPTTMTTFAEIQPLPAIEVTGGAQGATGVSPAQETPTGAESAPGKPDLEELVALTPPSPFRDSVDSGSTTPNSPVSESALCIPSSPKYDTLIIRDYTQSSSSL

Compound	EC50 [1]	Emax [2]	EC50 [3]	Emax [4]	EC50 (EC50, Table 1, EC50 for potentiating the mGluR5 receptor, unit inferred)
CCCC(C)NC1CCN(C(=O)c2ccc(C#Cc3ccccc3)cc2)CC1 (stereo not drawn) [(4-(pentan-2-ylamino)piperidin-1-yl)(4-(phenylethynyl)phenyl)methanone]	59.5 nM	–	–	–	–
O=C(c1ccc(C#Cc2ccccn2)cc1)N1CCC(O)CC1 [Compound 19k]	2450 nM	49%	2210 nM	–	–
O=C(c1ccc(/C=C/c2ccccc2)cc1)N1CCC(O)CC1 [(E)-(4-hydroxypiperidin-1-yl)(4-styrylphenyl)methanone]	1970 nM	–	–	–	–
CCCCNC(=O)c1ccc(C#Cc2ccccc2)cc1 [N-butyl-4-(phenylethynyl)benzamide]	33.5 nM	–	–	–	–
O=C(c1ccc(C#Cc2ccc(F)c(F)c2)cc1)N1CCC(O)CC1 [Compound 19d, (4-((3,4-difluorophenyl)ethynyl)phenyl)(4-hydroxypiperidin-1-yl)methanone]	73.9 nM	52%	68.7 nM	–	–
O=C(NCCCN1CCOCC1)c1ccc(C#Cc2ccccc2)cc1 [N-(3-morpholinopropyl)-4-(phenylethynyl)benzamide]	1230 nM	–	–	–	–
O=C(c1ccc(C#Cc2ccc(F)cc2)cc1)N1CCC(O)CC1 [Compound 19c, (4-((4-fluorophenyl)ethynyl)phenyl)(4-hydroxypiperidin-1-yl)methanone]	15.2 nM	63%	14.7 nM	–	–
CN1CCN(C(=O)c2ccc(C#Cc3ccccc3)cc2)CC1 [(4-methylpiperazin-1-yl)(4-(phenylethynyl)phenyl)methanone]	166 nM	–	–	–	–
O=C(c1ccc(C#Cc2ccccc2)cc1)N1CCC2CCCCC2C1 (stereo not drawn) [(octahydroisoquinolin-2(1H)-yl)(4-(phenylethynyl)phenyl)methanone]	593 nM	–	–	–	–
CC(C)CCNC(=O)c1ccc(C#Cc2ccccc2)cc1 [N-isopentyl-4-(phenylethynyl)benzamide]	27.3 nM	–	–	–	–
O=C(c1ccc(C#Cc2ccccc2)cc1)N1CCC(N2CCCC2)CC1 [(4-(phenylethynyl)phenyl)(4-(pyrrolidin-1-yl)piperidin-1-yl)methanone]	3730 nM	–	–	–	–
O=C(c1ccc(C#Cc2ccccc2)cc1)N1CC(O)(c2cccs2)C1 [Compound 9d, (3-hydroxy-3-(thiophen-2-yl)azetidin-1-yl)(4-(phenylethynyl)phenyl)methanone]	1710 nM	43.7%	1470 nM	–	–
O=C(c1ccc(C#Cc2cccc(F)c2)cc1)N1CCOCC1 [Compound 20j, (4-((3-fluorophenyl)ethynyl)phenyl)(morpholino)methanone]	5.32 nM	112%	5.3 nM	–	–
O=C(NCCc1ccccc1Cl)c1ccc(C#Cc2ccccc2)cc1 [N-(2-chlorophenethyl)-4-(phenylethynyl)benzamide]	135 nM	–	–	–	–
O=C(NC1Cc2ccccc2C1)c1ccc(C#Cc2ccccc2)cc1 [N-(2,3-dihydro-1H-inden-2-yl)-4-(phenylethynyl)benzamide]	159 nM	–	–	–	–
CC1(O)CCN(C(=O)c2ccc(C#Cc3ccccc3)cc2)CC1 [Compound 7a, (4-hydroxy-4-methylpiperidin-1-yl)(4-(phenylethynyl)phenyl)methanone]	39.4 nM	–	3.5 nM	82.5%	–
O=C(c1ccc(C#Cc2ccccc2)cc1)N1CCN(c2ccccn2)CC1 [(4-(phenylethynyl)phenyl)(4-(pyridin-2-yl)piperazin-1-yl)methanone]	2920 nM	–	–	–	–
O=C(c1ccc(C#Cc2ccccc2F)cc1)N1CCC(O)CC1 [Compound 19a, (4-((2-fluorophenyl)ethynyl)phenyl)(4-hydroxypiperidin-1-yl)methanone]	28.1 nM	80%	27.3 nM	–	–

Compound	EC50 [1]	Emax [2]	EC50 [3]	Emax [4]	EC50 (EC50, Table 1, EC50 for potentiating the mGluR5 receptor, unit inferred)
O=C(c1ccc(C#Cc2ccccc2)cc1)N1CCC(n2c(=O)[nH]c3ccccc32)CC1 [1-(1-(4-(phenylethynyl)benzoyl)piperidin-4-yl)-1H-benzo[d]imidazol-2(3H)-one]	1470 nM	–	–	–	–
O=C(c1ccc(C#Cc2ccc(F)cc2)cc1)N1CCC(CO)CC1 [Compound 20g, (4-((4-fluorophenyl)ethynyl)phenyl)(4-(hydroxymethyl)piperidin-1-yl)methanone]	26.1 nM	95%	24.7 nM	–	–
CC1CN(C(=O)c2ccc(C#Cc3ccccc3)cc2)CC(C)O1 (stereo not drawn) [(2,6-dimethylmorpholino)(4-(phenylethynyl)phenyl)methanone]	88.9 nM	–	–	–	–
O=C(c1ccc(C#Cc2ccccc2)cc1)N1CCN(c2ccccc2)CC1 [(4-(phenylethynyl)phenyl)(4-phenylpiperazin-1-yl)methanone]	2060 nM	–	–	–	–
O=C(c1ccc(C#Cc2ccccc2)cc1)N1CCC(O)(c2ccc(Cl)cc2)CC1 [(4-(4-chlorophenyl)-4-hydroxypiperidin-1-yl)(4-(phenylethynyl)phenyl)methanone]	6460 nM	–	–	–	–
O=C(c1ccc(C#Cc2ccccc2)cc1)N1CC(O)C1 [Compound 9a, (3-hydroxyazetidin-1-yl)(4-(phenylethynyl)phenyl)methanone]	314 nM	67.3%	212 nM	–	–
O=C(c1ccc(C#Cc2ccccc2)cc1)N1CCC(O)(c2ccc(F)cc2)CC1 [drawing 155, (4-(4-fluorophenyl)-4-hydroxypiperidin-1-yl)(4-(phenylethynyl)phenyl)methanone]	1250 nM	–	–	–	–
O=C(c1ccc(C#Cc2ccccc2)cc1)N1CCCC(O)C1 (stereo not drawn) [(3-hydroxypiperidin-1-yl)(4-(phenylethynyl)phenyl)methanone]	134 nM	–	–	–	–
O=C(NCCC1=CCCCC1)c1ccc(C#Cc2ccccc2)cc1 [N-(2-cyclohexenylethyl)-4-(phenylethynyl)benzamide]	75.3 nM	–	–	–	–
CC(=O)C1(c2ccccc2)CCN(C(=O)c2ccc(C#Cc3ccccc3)cc2)CC1 [1-(4-phenyl-1-(4-(phenylethynyl)benzoyl)piperidin-4-yl)ethanone]	–	–	–	–	1250 nM
O=C(c1ccc(C#Cc2ccccc2)cc1)N1CCNCC1 [(4-(phenylethynyl)phenyl)(piperazin-1-yl)methanone]	4790 nM	–	–	–	–
CC(C)N1CCN(C(=O)c2ccc(C#Cc3ccccc3)cc2)CC1 [(4-isopropylpiperazin-1-yl)(4-(phenylethynyl)phenyl)methanone]	1190 nM	–	–	–	–
O=C(c1ccc(C#Cc2ccc(F)c(F)c2)cc1)N1CCOCC1 [Compound 20l, (4-((3,4-difluorophenyl)ethynyl)phenyl)(morpholino)methanone]	35.1 nM	114%	33.5 nM	–	–
O=C(c1ccc(C#Cc2ccccc2F)cc1)N1CC(O)C1 [Compound 20m, (4-((2-fluorophenyl)ethynyl)phenyl)(3-hydroxyazetidin-1-yl)methanone]	187 nM	98%	166 nM	–	–
O=C(c1ccc(C#Cc2ccc(F)cc2)cc1)N1CCOCC1 [Compound 20k, (4-((4-fluorophenyl)ethynyl)phenyl)(morpholino)methanone]	24.7 nM	107%	23.6 nM	–	–
O=C(c1ccc(C#Cc2ccccc2)cc1)N1CCC(O)(c2ccc(F)cc2)CC1 [Compound 7e]	–	–	1190 nM	87%	–
CC1(O)CCN(C(=O)c2ccc(C#Cc3ccc(F)c(F)c3)cc2)CC1 [Compound 20d, (4-((3,4-difluorophenyl)ethynyl)phenyl)(4-hydroxy-4-methylpiperidin-1-yl)methanone]	156 nM	91%	137 nM	–	–
CCCNC(=O)c1ccc(-c2nc(-c3ccc(F)cc3)no2)cc1 [4-(3-(4-fluorophenyl)-1,2,4-oxadiazol-5-yl)-N-propylbenzamide]	2030 nM	–	–	–	–
